Data set [1] addresses dipeptidyl peptidase-IV (DPP-IV) (Homo sapiens, UniProt P27487). Briefly: In vitro proteolytic stability against DPP-IV. The class given is in vitro ADME. The settings on record: for half-life: isolated enzyme dpp iv, pH 7.4; for Fold in vitro half-life relative to native GLP-1, DPP-IV incubation: ratio to native GLP-1 (10.2 min), 37 °C.
The nature of data set [2]: In vitro stability on incubation with mouse serum. The class given is in vitro ADME. The settings on record: for half-life at 200 µM: mouse, serum; for Fold in vitro half-life relative to native GLP-1, serum incubation: ratio to native GLP-1 (55.7 min), mouse serum, 37 °C.

dipeptidyl peptidase-IV (DPP-IV), sequence (P27487 whole entry, species assumed): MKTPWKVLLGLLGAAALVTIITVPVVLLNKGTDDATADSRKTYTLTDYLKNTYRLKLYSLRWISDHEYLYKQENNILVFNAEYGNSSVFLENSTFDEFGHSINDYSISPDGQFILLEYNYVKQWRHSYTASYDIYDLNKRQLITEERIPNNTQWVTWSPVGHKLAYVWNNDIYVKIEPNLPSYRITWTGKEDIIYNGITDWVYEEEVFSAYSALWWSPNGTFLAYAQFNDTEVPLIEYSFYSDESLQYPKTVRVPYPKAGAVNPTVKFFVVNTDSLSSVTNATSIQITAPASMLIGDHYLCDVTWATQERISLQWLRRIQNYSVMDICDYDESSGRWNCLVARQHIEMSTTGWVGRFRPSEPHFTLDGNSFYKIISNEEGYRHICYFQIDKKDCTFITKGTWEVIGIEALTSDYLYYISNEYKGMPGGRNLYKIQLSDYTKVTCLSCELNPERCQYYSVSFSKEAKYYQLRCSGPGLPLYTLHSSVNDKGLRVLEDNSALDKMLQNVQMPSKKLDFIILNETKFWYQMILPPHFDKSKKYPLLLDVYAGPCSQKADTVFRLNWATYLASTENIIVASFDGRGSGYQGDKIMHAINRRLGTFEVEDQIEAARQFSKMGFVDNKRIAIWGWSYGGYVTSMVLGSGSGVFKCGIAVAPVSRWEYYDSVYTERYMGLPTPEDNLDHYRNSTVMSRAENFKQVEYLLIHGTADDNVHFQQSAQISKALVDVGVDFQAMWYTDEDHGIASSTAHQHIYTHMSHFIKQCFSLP

For orientation: half-life means the time in which the quantity being followed falls by half. The low end stands for rapid decline, the high end for slow decline. In turn, `CC[C@H](C)[C@H](NC(=O)[C@H](Cc1ccccc1)NC(=O)[C@H](CCC(=O)O)NC(=O)[C@H](CCCCN)NC(=O)[C@H](C)NC(=O)[C@H](C)NC(=O)[C@H](CCC(N)=O)NC(=O)CNC(=O)[C@H](CCC(=O)O)NC(=O)[C@H](CC(C)C)NC(=O)[C@H](Cc1ccc(O)cc1)NC(=O)[C@H](CO)NC(=O)[C@H](CO)NC(=O)[C@@H](NC(=O)[C@H](CC(=O)N[C@@H]1O[C@H](CO)[C@@H](O[C@@H]2O[C@H](CO)[C@@H](O[C@@H]3O[C@H](CO[C@H]4O[C@H](CO)[C@@H](O)[C@H](O)[C@@H]4O[C@@H]4O[C@H](CO)[C@@H](O[C@@H]5O[C@H](CO)[C@H](O)[C@H](O)[C@H]5O)[C@H](O)[C@H]4NC(C)=O)[C@@H](O)[C@H](O[C@H]4O[C@H](CO)[C@@H](O)[C@H](O)[C@@H]4O[C@@H]4O[C@H](CO)[C@@H](O[C@@H]5O[C@H](CO)[C@H](O)[C@H](O)[C@H]5O)[C@H](O)[C@H]4NC(C)=O)[C@@H]3O)[C@H](O)[C@H]2NC(C)=O)[C@H](O)[C@H]1O)NC(=O)[C@H](CO)NC(=O)[C@@H](NC(=O)[C@H](Cc1ccccc1)NC(=O)[C@@H](NC(=O)CNC(=O)[C@H](CCC(=O)O)NC(=O)[C@H](C)NC(=O)[C@@H](N)Cc1c[nH]cn1)[C@@H](C)O)[C@@H](C)O)C(C)C)C(=O)N[C@@H](C)C(=O)N[C@@H](Cc1c[nH]c2ccccc12)C(=O)N[C@@H](CC(C)C)C(=O)N[C@H](C(=O)N[C@@H](CCCCN)C(=O)NCC(=O)N[C@@H](CCCNC(=N)N)C(=O)NCC(=O)O)C(C)C` [Glycan-GLP-1-1(G2)] came in with a half-life in data set [1] of 0.818 ± 0.095 h. The half-life at 200 µM in data set [2] was 5.92 ± 0.155 h.

The molecule `CC[C@H](C)[C@H](NC(=O)[C@H](CO)NC(=O)[C@H](CCC(=O)O)NC(=O)[C@H](CC(=O)N[C@@H]1O[C@H](CO)[C@@H](O[C@@H]2O[C@H](CO)[C@@H](O[C@@H]3O[C@H](CO[C@H]4O[C@H](CO)[C@@H](O)[C@H](O)[C@@H]4O[C@@H]4O[C@H](CO)[C@@H](O[C@@H]5O[C@H](CO)[C@H](O)[C@H](O)[C@H]5O)[C@H](O)[C@H]4NC(C)=O)[C@@H](O)[C@H](O[C@H]4O[C@H](CO)[C@@H](O)[C@H](O)[C@@H]4O[C@@H]4O[C@H](CO)[C@@H](O[C@@H]5O[C@H](CO)[C@H](O)[C@H](O)[C@H]5O)[C@H](O)[C@H]4NC(C)=O)[C@@H]3O)[C@H](O)[C@H]2NC(C)=O)[C@H](O)[C@H]1O)NC(=O)[C@H](C)NC(=O)[C@H](C)NC(=O)[C@H](CCC(N)=O)NC(=O)CNC(=O)[C@H](CCC(=O)O)NC(=O)[C@H](CC(C)C)NC(=O)[C@H](Cc1ccc(O)cc1)NC(=O)[C@H](CO)NC(=O)[C@H](CO)NC(=O)[C@@H](NC(=O)[C@H](CC(=O)O)NC(=O)[C@H](CO)NC(=O)[C@@H](NC(=O)[C@H](Cc1ccccc1)NC(=O)[C@@H](NC(=O)CNC(=O)[C@H](CCC(=O)O)NC(=O)[C@H](C)NC(=O)[C@@H](N)Cc1c[nH]cn1)[C@@H](C)O)[C@@H](C)O)C(C)C)C(=O)N[C@@H](C)C(=O)N[C@@H](Cc1c[nH]c2ccccc12)C(=O)N[C@@H](CC(C)C)C(=O)N[C@H](C(=O)N[C@@H](CCCCN)C(=O)NCC(=O)N[C@@H](CCCNC(=N)N)C(=O)NCC(=O)O)C(C)C` [Glycan-GLP-1-3(G2)] gave a half-life in data set [1] of 3.088 ± 0.0183 h. This molecule returned a half-life at 200 µM in data set [2] of 12.3 ± 0.162 h.

On to `CC[C@H](C)[C@H](NC(=O)[C@H](CO)NC(=O)[C@H](CCC(=O)O)NC(=O)[C@H](CC(=O)N[C@@H]1O[C@H](CO)[C@@H](O[C@@H]2O[C@H](CO)[C@@H](O[C@@H]3O[C@H](CO[C@H]4O[C@H](CO)[C@@H](O)[C@H](O)[C@@H]4O[C@@H]4O[C@H](CO)[C@@H](O[C@@H]5O[C@H](CO[C@]6(C(=O)O)C[C@H](O)[C@@H](NC(C)=O)[C@H]([C@H](O)[C@H](O)CO)O6)[C@H](O)[C@H](O)[C@H]5O)[C@H](O)[C@H]4NC(C)=O)[C@@H](O)[C@H](O[C@H]4O[C@H](CO)[C@@H](O)[C@H](O)[C@@H]4O[C@@H]4O[C@H](CO)[C@@H](O[C@@H]5O[C@H](CO[C@]6(C(=O)O)C[C@H](O)[C@@H](NC(C)=O)[C@H]([C@H](O)[C@H](O)CO)O6)[C@H](O)[C@H](O)[C@H]5O)[C@H](O)[C@H]4NC(C)=O)[C@@H]3O)[C@H](O)[C@H]2NC(C)=O)[C@H](O)[C@H]1O)NC(=O)[C@H](C)NC(=O)[C@H](C)NC(=O)[C@H](CCC(N)=O)NC(=O)CNC(=O)[C@H](CCC(=O)O)NC(=O)[C@H](CC(C)C)NC(=O)[C@H](Cc1ccc(O)cc1)NC(=O)[C@H](CO)NC(=O)[C@H](CO)NC(=O)[C@@H](NC(=O)[C@H](CC(=O)O)NC(=O)[C@H](CO)NC(=O)[C@@H](NC(=O)[C@H](Cc1ccccc1)NC(=O)[C@@H](NC(=O)CNC(=O)[C@H](CCC(=O)O)NC(=O)[C@H](C)NC(=O)[C@@H](N)Cc1c[nH]cn1)[C@@H](C)O)[C@@H](C)O)C(C)C)C(=O)N[C@@H](C)C(=O)N[C@@H](Cc1c[nH]c2ccccc12)C(=O)N[C@@H](CC(C)C)C(=O)N[C@H](C(=O)N[C@@H](CCCCN)C(=O)NCC(=O)N[C@@H](CCCNC(=N)N)C(=O)NCC(=O)O)C(C)C` [Glycan-GLP-1-3(G2S2)], for which, in data set [1], the half-life worked out at 6.245 ± 0.03 h and the “Fold in vitro half-life relative to native GLP-1, DPP-IV incubation” value was determined as 36.7 fold. Also, in data set [2], the half-life at 200 µM is 23.22 ± 0.148 h and the “Fold in vitro half-life relative to native GLP-1, serum incubation” value amounted to 25.0 fold.

For `CC[C@H](C)[C@H](NC(=O)[C@H](Cc1ccccc1)NC(=O)[C@H](CCC(=O)O)NC(=O)[C@H](CCCCN)NC(=O)[C@H](C)NC(=O)[C@H](C)NC(=O)[C@H](CCC(N)=O)NC(=O)CNC(=O)[C@H](CCC(=O)O)NC(=O)[C@H](CC(C)C)NC(=O)[C@H](Cc1ccc(O)cc1)NC(=O)[C@H](CO)NC(=O)[C@H](CO)NC(=O)[C@@H](NC(=O)[C@H](CC(=O)O)NC(=O)[C@H](CO)NC(=O)[C@@H](NC(=O)[C@H](Cc1ccccc1)NC(=O)[C@@H](NC(=O)CNC(=O)[C@H](CCC(=O)O)NC(=O)[C@H](C)NC(=O)[C@@H](N)Cc1c[nH]cn1)[C@@H](C)O)[C@@H](C)O)C(C)C)C(=O)N[C@@H](C)C(=O)N[C@@H](Cc1c[nH]c2ccccc12)C(=O)N[C@@H](CC(C)C)C(=O)N[C@H](C(=O)N[C@@H](CC(=O)N[C@@H]1O[C@H](CO)[C@@H](O[C@@H]2O[C@H](CO)[C@@H](O[C@@H]3O[C@H](CO[C@H]4O[C@H](CO)[C@@H](O)[C@H](O)[C@@H]4O[C@@H]4O[C@H](CO)[C@@H](O[C@@H]5O[C@H](CO[C@]6(C(=O)O)C[C@H](O)[C@@H](NC(C)=O)[C@H]([C@H](O)[C@H](O)CO)O6)[C@H](O)[C@H](O)[C@H]5O)[C@H](O)[C@H]4NC(C)=O)[C@@H](O)[C@H](O[C@H]4O[C@H](CO)[C@@H](O)[C@H](O)[C@@H]4O[C@@H]4O[C@H](CO)[C@@H](O[C@@H]5O[C@H](CO[C@]6(C(=O)O)C[C@H](O)[C@@H](NC(C)=O)[C@H]([C@H](O)[C@H](O)CO)O6)[C@H](O)[C@H](O)[C@H]5O)[C@H](O)[C@H]4NC(C)=O)[C@@H]3O)[C@H](O)[C@H]2NC(C)=O)[C@H](O)[C@H]1O)C(=O)NCC(=O)N[C@H](C(=O)NCC(=O)O)[C@@H](C)O)C(C)C` [Glycan-GLP-1-5(G2S2)], in data set [1], the half-life was found to be 4.088 ± 0.0217 h and the “Fold in vitro half-life relative to native GLP-1, DPP-IV incubation” value is given as 24.0 fold. In data set [2], the half-life at 200 µM came out at 12.9 ± 0.17 h and the “Fold in vitro half-life relative to native GLP-1, serum incubation” value was 13.9 fold.

The values are drawn from publication PMC9639207 (RSC Advances, 2022).
